Experimental data from US9567318B2, “Substituted pyrimidine compounds and uses thereof” (Memorial Sloan-Kettering Cancer Center, priority 2009, dated 2017).

How the values were obtained:
[1] = tested on: MDA-MB-468 xenografted tumors; assay: Tumor xenografts; assay type: in vivo; details: i.t., alternate days, mice
Experimental: FIG. 12. YK5 affects the major hallmarks of cancer: inhibits proliferation and invasiveness and arrests cancer cells in the cell cycle. (a) The indicated cancer cells were incubated with increasing concentrations of inhibitors and growth over 72 h was assessed. Y-axis values below 0% represent cell death of the starting population. Drugs were assayed in triplicate. (b) Mice (n=5) bearing MDA-MB-468 subcutaneously (s.c.) xenografted tumors that reached a volume of approximately 100-200 mm^3, were administered i.t. YK5 or vehicle as described in Methods. Tumor volume (mm^3) was estimated from caliper measurements. (c) Cells were treated for 24 h with indicated concentrations of YK5. DNA content was analyzed by propidium iodide staining and flow cytometry (left), whereas proteins by western blotting (right). (d) Hsp70 client proteins isolated by YK55-beads from SKBr3 and MDA-MB-468 extracts (500 μg) were analyzed by western blotting. […] (e) MDA-MB-231 breast cancer cells were treated for 24 h with YK5 (1 μM) and protein extracts were subjected to immunoblotting (upper) or pre-treated for 24 h with vehicle or YK5, and viable cells able to migrate through Matrigel over a 20 h period were quantified and data graphed (lower). […]
Tumor Xenografts. […] Tumor volume was determined by measurement with Vernier calipers, and tumor volume was calculated as the product of its length×width^2×0.4. […]

[2] = tested on: Mia-PaCa2, AsPC-1, BxPC3 and PL45 cells; assay: Apoptosis, acridine orange/ethidium bromide, pancreatic cancer cells; assay type: cell-based, human; details: 10 μM, 24-48 h
Experimental: To determine whether cell death by YK5 was attributable to apoptosis, cells were treated with YK5 and effects on morphology, as well as on several effectors and mediators of apoptosis were analyzed (FIG. 13). To quantify the number of cells undergoing apoptosis, cells were stained with acridine orange/ethidium bromide (AO/EB) and analyzed under a fluorescence microscope for the percentage of viable, apoptotic (early and late) and necrotic cells. […] Most sensitive to YK5 were pancreatic cancer cells.
Apoptosis-Acridine Orange/Ethidium Bromide. Apoptosis was determined using acridine orange/ethidium bromide (AO/EB) double staining. Acridine orange is taken up by both viable and nonviable cells and emits green fluorescence if intercalated into double stranded nucleic acid (DNA) or red fluorescence if bound to single stranded nucleic acid (RNA). Ethidium bromide is taken up only by nonviable cells and emits red fluorescence by intercalation into DNA. (1) Viable cells have uniform green nuclei with organized structure. […] Following staining with Acridine Orange and Ethidium Bromide cells were visualized with a fluorescent microscope (Zeiss Axiovert 40 CFL) and counted. Percentage of apoptotic cells was determined from 200-300 cells counted in each group.

## C=CC(=O)Nc1cc(N)nc(Sc2c(OC)nc(N3CCN(C)CC3)nc2OC)n1 [YK5, N-(6-amino-2-(4,6-dimethoxy-2-(4-methylpiperazin-1-yl)pyrimidin-5-ylthio)pyrimidin-4-yl)acrylamide]
[1]
  growth of xenografted tumors: inhibited the growth of MDA-MB-468 xenografted tumors
[2]
  apoptosis in pancreatic cancer cells: induced significant apoptosis
